Test results: article PMC7313537 (PLoS ONE, 2020)

Experiments:
[1] = test system: primary T cells from normal donors; conditions: up to 1,500 nM
IKKB = IKKB (Homo sapiens, UniProt O14920); test: Enzyme selectivity panel; format: biochemical; conditions: 1 mM ATP
Procedure: (§2) The kinase assays were carried out at room temperature in HEPES 50 mM, pH 7.0, NaN3 0.02%, BSA 0.01%, Orthovanadate 0.1 mM, DTT 1 mM, MgCl2 10 mM in a final volume of 10 µL. Test compounds were transferred to the plate wells by ECHO liquid handler (Labcyte, San Jose, CA) with 0.5% dimethyl sulfoxide (DMSO) in the final assay. Peptide/kinase mixtures were diluted in the appropriate enzymatic buffer and 5µL of the mixture was added to a 384-well small volume black plate. Reactions were initiated by the addition of 5 µL ATP in reaction buffer, the final reaction mixture consisted of 500 nM peptide substrate, 1 mM ATP, and appropriate amount of specific kinase. […] The plates were then sealed and centrifuged at 1800 rpm for 2 minutes. […] Half maximal inhibitory concentration (IC50) determination was performed by fitting the curve of percent control activity versus the log of the compound concentration using the GraphPad Prism 6.0 software.

[2] = Plasma protein binding (equilibrium dialysis); format: in vitro ADME, cynomolgus monkey; conditions: pH 7.4, monkey plasma, read-out: PPB (% free)
Procedure: The final DMSO content in all cases was <0.1%. Each condition was incubated in duplicate. For protein binding determination, the Multi-Equilibrium Dialyzer System™ and diachema membranes from Harvard Apparatus (Holliston, MA) were utilized. Equilibrium dialysis was carried out in Teflon cells separated by a dialysis membrane with a molecular weight cutoff of 10,000 Daltons. […] The cells were rotated at a speed of 12 rpm in a 37°C water bath for 2 hours. Following the incubation period, buffer and serum/plasma samples were drained separately into empty preweighed glass test tubes. The tubes were reweighed, and the exact volume of sample recovered from each side of the dialysis cell was calculated using the mass. A 75-μL aliquot of each sample (buffer or serum/plasma) was added to a 96-well plate containing a protein precipitation solution of 100% methanol and 0.2 μM dextrorphan as the internal standard; 75 μL of blank buffer or plasma/serum was added to the plate to ensure identical composition across all samples. Prior to analysis, samples prepared in the 96-well plate were vigorously vortexed for approximately 5 minutes and centrifuged for 10 minutes at ~1700 × g to remove denatured proteins and particulate matter. The supernatant was transferred and analyzed using LC-MS/MS.

PLK3 = PLK3 (Homo sapiens, UniProt Q9H4B4); test: Enzyme selectivity panel; format: biochemical; conditions: 1 mM ATP
Procedure: as §2

MM1.S = test: Cell viability assay (CellTiter-Glo); format: cell-based; conditions: Homo sapiens, Myeloma, lacking FGFR alterations
SGK3 = SGK3 (Homo sapiens, UniProt Q96BR1); test: Enzyme selectivity panel; format: biochemical; conditions: 1 mM ATP
Procedure: as §2

BRAF = BRAF (Homo sapiens, UniProt P15056); test: Enzyme selectivity panel; format: biochemical; conditions: 1 mM ATP
Procedure: as §2

ERBB4 = ERBB4 (Homo sapiens, UniProt Q15303); test: Enzyme selectivity panel; format: biochemical; conditions: 1 mM ATP
Procedure: as §2

TGFBR1 = TGFBR1 (Homo sapiens, UniProt P36897); test: Enzyme selectivity panel; format: biochemical; conditions: 1 mM ATP
Procedure: as §2

SRC = target: T1, SRC (Homo sapiens, UniProt P12931); test: Enzyme selectivity panel; format: biochemical; conditions: 1 mM ATP
T1 construct: purchased In-house HTRF panel (56 kinases) and PerkinElmer (161-kinase panel)
Procedure: as §2

[3] = test system: VEGF-induced growth of human umbilical vein endothelial cells (HUVEC); test: HUVEC proliferation stimulated with VEGF; format: cell-based
From the text: S2 Figure. […] Directly. An assay was developed to evaluate the proliferation of human umbilical vein endothelial cells (HUVEC) when stimulated with basic FGF (b-FGF) or VEGF.

[4] = test system: KG1 (FGFROP2-FGFR1 fusion positive) AML model; test: KG1 xenograft efficacy; conditions: 0.3 mg/kg once daily, oral, 14 days; P < 0.05
Procedure: The inoculation was performed subcutaneously on the right flank. The treatment of tumor bearing mice was started 7 days after tumor inoculation.

JNK1 = JNK1 (Homo sapiens, UniProt P45983); test: Enzyme selectivity panel; format: biochemical; conditions: 1 mM ATP
Procedure: as §2

[5] = Preclinical safety studies; format: in vivo
CYP1A2 = target: T2, CYP1A2 (Homo sapiens, UniProt P05177); test: CYP inhibition; format: in vitro ADME; conditions: human liver microsomes
T2 construct: from tissue; host or cells: human liver microsomes
Procedure: (§1) In addition, the known selective inhibitors of CYP1A2 (α-naphthoflavone), CYP2B6 (ticlopidine), CYP2C8 (quercetin), CYP2C9 (sulfaphenazole), CYP2C19 (tranylcypromine), CYP2D6 (quinidine), and CYP3A4 (ketoconazole) were included as positive controls. […] Samples were vortexed and centrifuged, and the resulting supernatants were analyzed using LC-MS/MS.

CYP2C8 = target: T3, CYP2C8 (Homo sapiens, UniProt P10632); test: CYP inhibition; format: in vitro ADME; conditions: human liver microsomes
T3 construct: from tissue; host or cells: human liver microsomes
Procedure: as §1

CYP2D6 = target: T4, CYP2D6 (Homo sapiens, UniProt P10635); test: CYP inhibition; format: in vitro ADME; conditions: human liver microsomes
T4 construct: from tissue; host or cells: human liver microsomes
Procedure: as §1

CYP3A4 = target: T5, CYP3A4 (Homo sapiens, UniProt P08684); test: CYP inhibition; format: in vitro ADME; conditions: human liver microsomes
T5 construct: from tissue; host or cells: human liver microsomes
Procedure: as §1

CYP2C19 = target: T6, CYP2C19 (Homo sapiens, UniProt P33261); test: CYP inhibition; format: in vitro ADME; conditions: human liver microsomes
T6 construct: from tissue; host or cells: human liver microsomes
Procedure: as §1

CYP2B6 = target: T7, CYP2B6 (Homo sapiens, UniProt P20813); test: CYP inhibition; format: in vitro ADME; conditions: human liver microsomes
T7 construct: from tissue; host or cells: human liver microsomes
Procedure: as §1

CYP2C9 = target: T8, CYP2C9 (Homo sapiens, UniProt P11712); test: CYP inhibition; format: in vitro ADME; conditions: human liver microsomes
T8 construct: from tissue; host or cells: human liver microsomes
Procedure: as §1

Pharmacokinetic analyses = format: in vivo, beagle dogs; conditions: male dog
Procedure: The i.v. formulation in rats was 5% dimethylacetamide (DMAC) and 25% sulfobutyl ether β-cyclodextrin in acidified saline (pH 3). The i.v. formulation in dogs and monkeys was 5% DMAC and 20% sulfobutyl ether β-cyclodextrin in saline. The oral formulation in all species was 5% DMAC in 0.5% methylcellulose aqueous solution. For rats, blood samples were collected at predose, 5 (i.v. dosing only), 15, and 30 minutes, and 1, 2, 4, 6, 8, and 24 hours. For dogs, blood samples were collected at predose, 2.5 and 5 (i.v. dosing only), 15, and 30 minutes, and 1, 2, 3, 4, 6, 8, 12, and 24 hours postdose. For monkeys, blood samples were collected at predose, 5 and 10 (i.v. dosing only), 15, and 30 minutes, and 1, 2, 3, 4, 6, 8, 12, 16, and 24 hours postdose. Collected blood samples were processed to extract plasma by centrifugation and stored at −20 °C until analysis.
The plasma was protein precipitated and the diluted supernatant was analyzed using LC/MS/MS. A standard curve was prepared in plasma from 1 to 5,000 nM and processed in the same manner as the samples. The pharmacokinetic parameters were determined using WinNonLin 6.3.

PIM1 = target: T9, PIM1 (Homo sapiens, UniProt P11309); test: Enzyme selectivity panel; format: biochemical; conditions: 1 mM ATP
T9 construct: purchased In-house HTRF panel (56 kinases) and PerkinElmer (161-kinase panel)
Procedure: as §2

[6] = test system: KATO III (gastric cancer); test: Cell viability assay (CellTiter-Glo); format: cell-based; conditions: Homo sapiens, FGFR2 amplification, 72 hours, read-out: Mean GI50 ± S.D.

T8 sequence (P11712 whole entry): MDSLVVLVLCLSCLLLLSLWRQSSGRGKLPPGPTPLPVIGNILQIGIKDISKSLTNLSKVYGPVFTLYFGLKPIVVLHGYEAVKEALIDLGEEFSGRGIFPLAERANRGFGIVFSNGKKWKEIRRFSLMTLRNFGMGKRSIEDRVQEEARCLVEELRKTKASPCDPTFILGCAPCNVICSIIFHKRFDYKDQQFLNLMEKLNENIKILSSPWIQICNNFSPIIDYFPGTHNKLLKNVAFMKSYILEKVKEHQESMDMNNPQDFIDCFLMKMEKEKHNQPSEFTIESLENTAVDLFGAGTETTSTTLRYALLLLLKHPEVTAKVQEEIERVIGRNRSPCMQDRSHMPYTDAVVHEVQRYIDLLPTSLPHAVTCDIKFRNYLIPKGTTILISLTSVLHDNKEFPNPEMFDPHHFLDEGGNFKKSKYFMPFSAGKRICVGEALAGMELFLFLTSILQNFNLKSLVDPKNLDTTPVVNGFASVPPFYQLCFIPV
T9 sequence (P11309 whole entry, species assumed): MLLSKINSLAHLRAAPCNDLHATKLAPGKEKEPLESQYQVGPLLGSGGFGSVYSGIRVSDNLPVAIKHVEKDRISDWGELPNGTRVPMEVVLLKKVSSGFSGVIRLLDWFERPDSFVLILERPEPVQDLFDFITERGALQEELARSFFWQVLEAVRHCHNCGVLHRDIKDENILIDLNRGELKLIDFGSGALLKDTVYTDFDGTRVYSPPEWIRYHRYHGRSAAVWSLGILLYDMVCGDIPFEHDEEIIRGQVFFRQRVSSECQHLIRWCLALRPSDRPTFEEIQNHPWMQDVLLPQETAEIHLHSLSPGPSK
BRAF, sequence (P15056 whole entry, species assumed): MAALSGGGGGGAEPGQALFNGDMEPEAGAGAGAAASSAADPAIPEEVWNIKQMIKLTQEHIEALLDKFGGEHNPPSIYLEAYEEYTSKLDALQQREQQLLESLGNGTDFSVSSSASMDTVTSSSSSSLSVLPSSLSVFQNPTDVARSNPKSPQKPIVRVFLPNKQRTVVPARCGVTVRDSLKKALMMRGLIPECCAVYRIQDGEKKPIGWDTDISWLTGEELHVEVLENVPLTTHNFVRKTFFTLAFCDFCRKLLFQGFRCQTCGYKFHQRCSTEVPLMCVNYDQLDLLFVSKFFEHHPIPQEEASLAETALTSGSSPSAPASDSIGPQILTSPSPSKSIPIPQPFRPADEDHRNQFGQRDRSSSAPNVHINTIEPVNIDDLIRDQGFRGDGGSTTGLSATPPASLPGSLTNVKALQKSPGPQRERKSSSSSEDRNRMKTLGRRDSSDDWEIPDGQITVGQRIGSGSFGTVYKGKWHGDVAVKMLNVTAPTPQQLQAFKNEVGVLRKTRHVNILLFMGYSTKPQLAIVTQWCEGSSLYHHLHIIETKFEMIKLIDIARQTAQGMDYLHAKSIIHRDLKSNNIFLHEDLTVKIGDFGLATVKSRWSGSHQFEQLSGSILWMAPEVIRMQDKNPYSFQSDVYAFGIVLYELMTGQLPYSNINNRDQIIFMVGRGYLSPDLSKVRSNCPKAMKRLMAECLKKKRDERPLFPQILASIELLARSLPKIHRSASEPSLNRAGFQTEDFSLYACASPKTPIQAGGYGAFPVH
T6 sequence (P33261 whole entry): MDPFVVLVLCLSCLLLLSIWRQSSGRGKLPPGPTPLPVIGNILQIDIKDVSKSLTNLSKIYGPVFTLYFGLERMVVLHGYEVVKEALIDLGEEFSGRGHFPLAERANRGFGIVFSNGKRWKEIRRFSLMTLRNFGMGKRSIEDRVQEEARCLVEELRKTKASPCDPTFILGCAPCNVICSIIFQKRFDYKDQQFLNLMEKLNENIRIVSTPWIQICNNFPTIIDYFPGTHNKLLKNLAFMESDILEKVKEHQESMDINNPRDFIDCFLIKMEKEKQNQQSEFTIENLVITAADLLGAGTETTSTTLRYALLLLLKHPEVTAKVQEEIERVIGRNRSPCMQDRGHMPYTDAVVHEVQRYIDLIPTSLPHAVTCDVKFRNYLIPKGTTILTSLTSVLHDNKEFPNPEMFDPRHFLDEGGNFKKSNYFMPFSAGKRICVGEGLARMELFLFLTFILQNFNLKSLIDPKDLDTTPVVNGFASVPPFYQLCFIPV
JNK1, sequence (P45983 whole entry, species assumed): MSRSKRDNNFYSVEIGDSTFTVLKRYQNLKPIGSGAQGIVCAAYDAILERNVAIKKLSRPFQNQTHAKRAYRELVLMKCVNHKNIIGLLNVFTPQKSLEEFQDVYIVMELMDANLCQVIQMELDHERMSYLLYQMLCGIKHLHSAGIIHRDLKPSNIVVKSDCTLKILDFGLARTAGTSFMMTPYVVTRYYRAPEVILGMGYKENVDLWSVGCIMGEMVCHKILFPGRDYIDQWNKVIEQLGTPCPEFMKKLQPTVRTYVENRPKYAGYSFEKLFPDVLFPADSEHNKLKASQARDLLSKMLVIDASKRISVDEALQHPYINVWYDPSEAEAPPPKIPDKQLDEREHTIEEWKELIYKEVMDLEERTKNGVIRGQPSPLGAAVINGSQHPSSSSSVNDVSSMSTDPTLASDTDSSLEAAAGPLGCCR
TGFBR1, sequence (P36897 34-503, species assumed): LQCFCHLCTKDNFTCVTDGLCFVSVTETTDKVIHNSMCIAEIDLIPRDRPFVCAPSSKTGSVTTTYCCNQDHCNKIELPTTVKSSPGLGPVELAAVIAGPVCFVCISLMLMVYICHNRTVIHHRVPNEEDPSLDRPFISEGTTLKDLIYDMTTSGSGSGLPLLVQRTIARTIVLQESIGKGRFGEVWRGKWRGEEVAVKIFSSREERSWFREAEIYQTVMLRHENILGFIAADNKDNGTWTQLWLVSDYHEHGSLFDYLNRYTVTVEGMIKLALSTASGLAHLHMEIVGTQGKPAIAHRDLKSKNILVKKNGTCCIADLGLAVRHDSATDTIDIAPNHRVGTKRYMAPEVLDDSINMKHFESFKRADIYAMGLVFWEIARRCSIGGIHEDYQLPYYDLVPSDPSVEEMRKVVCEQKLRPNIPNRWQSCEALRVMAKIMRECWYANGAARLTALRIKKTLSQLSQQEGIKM
ERBB4, sequence (Q15303 26-1308, species assumed): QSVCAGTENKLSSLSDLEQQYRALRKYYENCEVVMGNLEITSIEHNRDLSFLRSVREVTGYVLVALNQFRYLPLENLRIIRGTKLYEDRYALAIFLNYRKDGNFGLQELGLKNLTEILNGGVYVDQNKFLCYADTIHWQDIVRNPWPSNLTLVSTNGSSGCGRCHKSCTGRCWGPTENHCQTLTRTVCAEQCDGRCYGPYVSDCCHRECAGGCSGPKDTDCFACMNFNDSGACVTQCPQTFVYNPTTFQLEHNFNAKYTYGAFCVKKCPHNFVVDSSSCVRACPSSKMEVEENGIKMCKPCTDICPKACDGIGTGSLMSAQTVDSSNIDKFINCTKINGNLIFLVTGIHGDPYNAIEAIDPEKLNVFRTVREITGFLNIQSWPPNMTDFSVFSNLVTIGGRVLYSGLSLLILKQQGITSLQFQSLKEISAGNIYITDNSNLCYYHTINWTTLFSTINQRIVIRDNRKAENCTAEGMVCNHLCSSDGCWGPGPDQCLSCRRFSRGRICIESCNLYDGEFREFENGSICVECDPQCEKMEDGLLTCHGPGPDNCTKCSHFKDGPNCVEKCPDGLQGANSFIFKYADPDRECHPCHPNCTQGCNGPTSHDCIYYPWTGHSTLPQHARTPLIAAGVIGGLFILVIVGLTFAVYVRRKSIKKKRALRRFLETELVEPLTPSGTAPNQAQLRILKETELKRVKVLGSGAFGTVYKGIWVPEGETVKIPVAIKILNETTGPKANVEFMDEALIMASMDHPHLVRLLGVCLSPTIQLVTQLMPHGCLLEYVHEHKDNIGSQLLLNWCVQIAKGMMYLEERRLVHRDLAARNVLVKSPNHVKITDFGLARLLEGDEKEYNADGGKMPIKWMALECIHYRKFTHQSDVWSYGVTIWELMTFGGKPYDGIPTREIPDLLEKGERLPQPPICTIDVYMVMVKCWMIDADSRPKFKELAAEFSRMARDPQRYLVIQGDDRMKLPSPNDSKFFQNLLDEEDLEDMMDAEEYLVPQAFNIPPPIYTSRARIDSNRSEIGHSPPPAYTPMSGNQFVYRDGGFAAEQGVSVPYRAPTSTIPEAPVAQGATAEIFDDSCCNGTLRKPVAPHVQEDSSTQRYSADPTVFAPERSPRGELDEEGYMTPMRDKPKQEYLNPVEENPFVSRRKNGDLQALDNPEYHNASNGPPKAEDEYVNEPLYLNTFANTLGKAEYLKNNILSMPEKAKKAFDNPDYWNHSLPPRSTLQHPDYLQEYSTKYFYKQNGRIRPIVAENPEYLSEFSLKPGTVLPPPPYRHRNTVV
T3 sequence (P10632 whole entry): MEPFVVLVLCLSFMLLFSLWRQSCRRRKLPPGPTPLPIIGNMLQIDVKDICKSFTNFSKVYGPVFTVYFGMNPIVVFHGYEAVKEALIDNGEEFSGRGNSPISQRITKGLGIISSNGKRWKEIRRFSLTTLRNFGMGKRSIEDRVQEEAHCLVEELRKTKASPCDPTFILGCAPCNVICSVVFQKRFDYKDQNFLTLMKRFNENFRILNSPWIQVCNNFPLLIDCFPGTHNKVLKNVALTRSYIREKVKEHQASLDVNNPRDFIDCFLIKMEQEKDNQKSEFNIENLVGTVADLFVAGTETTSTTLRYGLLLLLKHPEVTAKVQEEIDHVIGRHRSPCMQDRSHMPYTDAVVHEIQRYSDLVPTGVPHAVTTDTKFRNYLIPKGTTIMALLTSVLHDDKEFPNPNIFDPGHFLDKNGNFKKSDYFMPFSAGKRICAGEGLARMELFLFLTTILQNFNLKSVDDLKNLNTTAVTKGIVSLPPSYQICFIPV

## CCN1C(=O)N(c2c(F)c(OC)cc(OC)c2F)Cc2cnc3[nH]c(CN4CCOCC4)cc3c21 [INCB054828, pemigatinib]
[1]
  inhibition of the proliferation of primary T cells: no inhibition
IKKB
  IC50: > 10 µM
[2]
  fraction unbound at 2 h, 1 μM: 0.082
PLK3
  IC50: > 10 µM
MM1.S
  GI50: > 5 µM
SGK3
  IC50: > 10 µM
BRAF
  IC50: > 10 µM
ERBB4
  IC50: > 10 µM
TGFBR1
  IC50: > 10 µM
SRC
  IC50: > 10 µM
[3]
  IC50: 0.801 µM
[4]
  efficacy against subcutaneous xenograft: significant efficacy
JNK1
  IC50: > 10 µM
[5]
  liver toxicity and changes in blood pressure: not observed
CYP1A2
  IC50: > 25 µM
CYP2C8
  IC50: > 25 µM
CYP2D6
  IC50: > 25 µM
CYP3A4
  IC50: > 25 µM
CYP2C19
  IC50: > 25 µM
CYP2B6
  IC50: > 25 µM
CYP2C9
  IC50: > 25 µM
Pharmacokinetic analyses; beagle, plasma, intravenous 1 mg/kg
  clearance: 3.05 mL/min/kg
Pharmacokinetic analyses; beagle, plasma, oral 2 mg/kg
  Cmax: 1770 nM
  bioavailability: 98%
Pharmacokinetic analyses; intravenous 1 mg/kg
  Vss: 3.49 L/kg
  t½: 15.7 h
Pharmacokinetic analyses; intravenous 1 mg/kg, % of hepatic blood flow
  Hepatic ER: 10%
Pharmacokinetic analyses; oral 2 mg/kg
  AUC: 22.1 µM·h
PIM1
  IC50: > 10 µM
[6]
  GI50: 0.003 ± 0.001 µM
